From the NIST ThermoML archive (doi:10.1021/je800653d)

Experiments:
[1] = 101 kPa, Liquid; for speed of sound: Linear variable-path acoustic interferometer; for viscosity: Capillary tube (Ostwald / Ubbelohde) method
[2] = xn = mol fraction of the nth substance listed; conditions: 101 kPa, Liquid, x2 = 0; for speed of sound: Linear variable-path acoustic interferometer; for viscosity: Capillary tube (Ostwald / Ubbelohde) method

CCCCOC(C)=O [butyl ethanoate]
[1]
Conditions	mass density [kg/m3]	speed of sound [m/s]	viscosity [mPa·s]
298.15 K	875.6	1203	–
303.15 K	871.6	1176	0.6072
308.15 K	867.1	1155	0.5687
313.15 K	862	1135	0.534

CCCCOC(C)=O [butyl ethanoate] + O=S1(=O)CCCC1
[2]
Conditions	mass density [kg/m3]	speed of sound [m/s]	viscosity [mPa·s]
298.15 K	875.6	1203	–
303.15 K	871.6	1176	0.6072
308.15 K	867.1	1155	0.5687
313.15 K	862	1135	0.534

CCOC(C)=O [ethyl acetate]
[1]
Conditions	mass density [kg/m3]	speed of sound [m/s]	viscosity [mPa·s]
298.15 K	895.1	1142	–
303.15 K	889.4	1122	0.3806
308.15 K	883.9	1101	0.3622
313.15 K	875.8	1082	0.3426

CCOC(C)=O [ethyl acetate] + O=S1(=O)CCCC1
[2]
Conditions	mass density [kg/m3]	speed of sound [m/s]	viscosity [mPa·s]
298.15 K	895.1	1142	–
303.15 K	889.4	1122	0.3806
308.15 K	883.9	1101	0.3622
313.15 K	875.8	1082	0.3426

CCCOC(C)=O [propyl ethanoate]
[1]
Conditions	mass density [kg/m3]	speed of sound [m/s]	viscosity [mPa·s]
298.15 K	883.7	1156	–
303.15 K	877.7	1149	0.4878
308.15 K	873.1	1139	0.4595
313.15 K	866.7	1126	0.4329

CCCOC(C)=O [propyl ethanoate] + O=S1(=O)CCCC1
[2]
Conditions	mass density [kg/m3]	speed of sound [m/s]	viscosity [mPa·s]
298.15 K	883.7	1156	–
303.15 K	877.7	1149	0.4878
308.15 K	873.1	1139	0.4595
313.15 K	866.7	1126	0.4329

O=S1(=O)CCCC1 [sulfolane]
[1]
Conditions	mass density [kg/m3]	speed of sound [m/s]	viscosity [mPa·s]
298.15 K	1263.9	1601	–
303.15 K	1261.8	1588	10.03
308.15 K	1257	1576	8.795
313.15 K	1251.6	1558	7.837
